# In patent US9980894B2, “Cosmetic compositions comprising hyaluronan biosynthesis promoting agents” (Symrise AG, priority 2012, dated 2018):
# “Also recorded” adds a separate entry of the source. Like-named read-outs stand apart in the source and are kept apart here.
# Columns and labels:
# [1] = test system: Normal Human Dermal Fibroblasts (NHDF); test: Cellular in vitro hyaluronan assay on normal human dermal fibroblasts (hyaluronic acid ELISA); assay type: cell-based; conditions: for Mean hyaluron stimulation vs. control: 16 h; for Effect on hyaluronan production of dermal fibroblasts (in words): in vitro; for Mean hyaluronan stimulation compared with positive control TGF-b1: cassione 0.25 μM, [6]-paradol 0.025 μM versus TGF-b1 1 ng/ml
# Method: (§1) NHDF are seeded into a 24 well plate at a concentration of 1.5×10^4 cells/well. Cells are incubated at 37° C. and 5% CO2 in fibroblast medium containing 10% fetal bovine serum (FBS) until they are 70-80% confluent. Then the medium is withdrawn, cells are washed with PBS and the test compounds dissolved in fibroblast medium without FBS are added. After incubation for 16 h in the presence of the test compounds, the culture medium is collected and hyaluronan is determined by a hyaluronic acid ELISA detection kit (Corgenix) which is performed according to the supplier instructions. The stimulation of the hyaluronan biosynthesis in the presence of the test compounds is calculated according to the following equation: Hyaluronan stimulation [%]=([…]×100)−100 with • HAcontrol=hyaluronan content in ng/ml of the medium from cells treated with control • HAtest compound=hyaluronan content in ng/ml of the medium from cells treated with test compound
# [2] = test system: Normal Human Epidermal Keratinocytes (NHEK); test: Cellular in vitro hyaluronan assay on normal human epidermal keratinocytes (hyaluronic acid ELISA); assay type: cell-based; conditions: for Effect on hyaluronan production of epidermal keratinocytes (in words): in vitro; for Mean hyaluron stimulation vs. control: 16 h; for Mean hyaluronan stimulation, fold less than that of the positive control retinol: compounds at 0.25 μM versus retinol at 0.1 μM
# Method: as §1, with “NHEK” for “NHDF”, “2.5×10^4” for “1.5×10^4”, “keratinocyte” for “fibroblast”, “medium” for “medium containing 10% fetal bovine serum (FBS)”, “medium” for “medium without FBS”
# ex vivo human skin = test: Hyaluronan assay on ex vivo human skin (Alcain blue staining, image analysis); assay type: cell-based
# From the text: Human skin obtained from plastic surgery is cut into pieces of approximately 7×3 mm (diameter×thickness). 6 skin samples are used for each treatment. The skin samples are placed on a cotton pad soaked with culture medium (modified Williams'E medium). Control and hydrodispersion gels (as described in more detail below) without (=placebo) and with the test compound, respectively, are applied topically on day 0 and the application is renewed on day 1. On day 2, skin samples are fixed, histological sections are prepared and subsequent histochemically stained by Alcain blue. After that, pictures are taken from each section and dermal and epidermal hyaluronan is quantified by image analysis of a selected region of interest. To do so, the histochemical staining is divided in three different color channels with an algorithm specific for Alcain blue staining and the distribution and intensity of the blue colour channel which is specific for hyaluronan is analysed. Hyaluronan stimulation [%]=([…]×100)−100 with • HAcontrol=hyaluronan score of the skin sample treated with control • HAtest compound=hyaluron score of the skin sample treated with test compound
# The hydrodispersion gels used had the composition as set out in Table 4: […]
# B16 melanoma cell line = conditions: cited from earlier work
# [3] = 0.0001% [6]-paradol containing gel versus placebo gel
# [4] = 0.0001 % in hydrodispersion gel, topical on day 0 and day 1, analysed day 2
# [5] = listed as compound of formula IV
compound,measurement,setting,value
"TGF-b1: Transforming growth factor (TGF)-beta1, positive control known to increase HA synthesis in dermal fibroblasts",Mean hyaluron stimulation vs. control,[1]; test concentration 1 ng/ml,39.7 ± 13.9%
same,Effect on hyaluronan production of epidermal keratinocytes (in words),[2],no stimulatory activity
same,Mean hyaluron stimulation vs. control,[2]; test concentration 1 ng/ml,−31.0%
"CC1=C(/C=C/C(C)=C/C=C/C(C)=C/CO)C(C)(C)CCC1 [Retinol, reference compound]",Effect on hyaluronan production of dermal fibroblasts (in words),[1],no stimulatory activity
same,Mean hyaluron stimulation vs. control,[1]; test concentration 0.1 μM,2.0%
same,Mean hyaluron stimulation vs. control,[2]; test concentration 0.1 μM,70.8 ± 33.3%
"CC1=C(/C=C/C(C)=C/C=C/C(C)=C/C(=O)O)C(C)(C)CCC1 [Retinoic acid, reference compound]",Mean hyaluron stimulation vs. control,[1]; test concentration 0.1 μM,−13.0 ± 18.0%
same,Mean hyaluron stimulation vs. control,[2]; test concentration 0.1 μM,116.1 ± 37.3%
"CCCCCCCC(=O)CCc1ccc(O)c(OC)c1 [[6]-Paradol, Heptyl 4-hydroxy-3-methoxyphenethyl ketone]",Mean hyaluronan stimulation compared with positive control TGF-b1,[1],comparable
same,Effect on hyaluronan production of dermal fibroblasts (in words),[1],enhance the hyaluronan production; also recorded: potently stimulates
same,Mean hyaluron stimulation vs. control,[1]; test concentration 0.025 μM,38.0 ± 9.0%
same,"Mean HA stimulation versus placebo, dermal HA",ex vivo human skin; [3],250%
same,"Mean HA stimulation versus placebo, epidermal HA",ex vivo human skin; [3],124%
same,Mean hyaluronan stimulation vs. control [%] Dermal,ex vivo human skin; [4],124%
same,Mean hyaluronan stimulation vs. control [%] Epidermal,ex vivo human skin; [4],51%
same,Effect on dermal and epidermal hyaluronan level of ex vivo human skin (in words),"ex vivo human skin; 0.0001%, 2 days of topical treatment",significantly stimulates
same,Effect on hyaluronan production of epidermal keratinocytes (in words),[2],no stimulatory activity; also recorded: without any direct stimulating effect on epidermal keratinocytes
same,Mean hyaluron stimulation vs. control,[2]; test concentration 0.025 μM,−3.0 ± 3.0%
"COc1cc(CCC(C)=O)ccc1O [Zingerone, 4-(4-hydroxy-3-methoxyphenyl)-2-butanone]",Effect on hyaluronan production of dermal fibroblasts (in words),[1],enhance the hyaluronan production; also recorded: increases HA biosynthesis
same,Mean hyaluron stimulation vs. control,[1]; test concentration 0.25 μM,15.0 ± 5.3%
same,"Mean hyaluronan stimulation, fold less than that of the positive control retinol",[2],1.6 fold
same,Effect on hyaluronan production of epidermal keratinocytes (in words),[2],enhance the hyaluronan production; also recorded: more pronounced effect on epidermal keratinocytes
same,Mean hyaluron stimulation vs. control,[2]; test concentration 0.25 μM,45.0 ± 24.7%
"CC(=O)CCc1ccc2c(c1)OCO2 [Cassione, 4-(3,4-methylendioxyphenyl)-2-butanone]",Mean hyaluronan stimulation compared with positive control TGF-b1,[1],comparable
same,Effect on hyaluronan production of dermal fibroblasts (in words),[1],enhance the hyaluronan production; also recorded: potently enhance
same,Mean hyaluron stimulation vs. control,[1]; test concentration 0.25 μM,41.0 ± 6.0%
same,"inhibition (skin lightening, in vitro efficacy)",B16 melanoma cell line; 26 μM (5 μg/ml),15%
same,"inhibition (skin lightening, in vitro efficacy)",B16 melanoma cell line; 520 μM (100 μg/ml),87%
same,"Mean hyaluronan stimulation, fold less than that of the positive control retinol",[2],1.9 fold
same,Effect on hyaluronan production of epidermal keratinocytes (in words),[2],enhance the hyaluronan production; also recorded: potently enhance
same,Mean hyaluron stimulation vs. control,[2]; test concentration 0.25 μM,37.0 ± 8.0%
"COc1cc(CCC(=O)c2ccc(O)cc2)ccc1O [Compound of formula IV, 3-(4-Hydroxy-3-methoxyphenyl)-1-(4-hydroxyphenyl)-1-propanone]",Effect on hyaluronan production of dermal fibroblasts (in words),[1]; [5],no stimulatory activity
same,Effect on hyaluronan production of dermal fibroblasts (in words),[1]; listed as formula IV,no direct stimulating effect on dermal fibroblasts
same,Mean hyaluron stimulation vs. control,[1]; test concentration 0.25 μM,−5.5 ± 2.5%
same,"Mean hyaluronan stimulation, fold less than that of the positive control retinol",[2],1.4 fold
same,Effect on hyaluronan production of epidermal keratinocytes (in words),[2]; [5],enhance the hyaluronan production
same,Effect on hyaluronan production of epidermal keratinocytes (in words),[2]; listed as formula IV,powerfully upregulates HA synthesis
same,Mean hyaluron stimulation vs. control,[2]; test concentration 0.25 μM,50.5 ± 26.5%
